This note sets out measurements from the METLIN SMRT retention time set (Domingo-Almenara et al. 2019).

The data set can be described thus: gradient 5% acetonitrile 3 min, to 50% in 2 min, to 85% in 15 min, held 3 min, 100 µL/min. The note with it: column: Zorbax Extend-C18 2.1 x 50 mm; eluents: water / acetonitrile, 0.1% formic acid. In outline: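 A Zorbax Extend-C18 column (2.1 × 50 mm, 1.8 μm) run at 100 μL/min with water and acetonitrile, both containing 0.1% formic acid, separated mixtures of ~100 pure standards. The HPLC was coupled to a quadrupole time-of-flight mass spectrometer operated in positive and negative ionization mode, with dead and dwell volumes of 40 μL and 900 μL. Each retention time was taken from a computationally picked adduct peak that was then manually inspected.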
Consider `COc1ccccc1-c1csc(-c2nnn(-c3ccc(F)cc3)c2N)n1`, for which the RP-LC retention time was 1070 s.
The compound `Fc1ccc(CN2CCc3nc(N4CCN(c5ccccc5F)CC4)ncc3C2)c(F)c1` came in with an RP-LC retention time of 795 s.
Under `Cc1ccc2c(c1)N(S(C)(=O)=O)CCC(C(=O)NCc1ccc(Cl)cc1)O2` (centres undefined) stands 954 s.
Under `CCc1nc2ccc(-c3noc(-c4cccs4)n3)cc2n1CC` stands 702 s.
The compound `CCn1cc(-c2nc(-c3cc(OC)cc(OC)c3)no2)c(=O)c2cc(F)c(N3CCOCC3)cc21` displayed an RP-LC retention time of 957 s.
Then `CCc1ccccc1NC(=O)N1CCC(n2cnc3ccc(C)cc3c2=O)CC1`, with 799 s.
Compound `COc1ccc(OC)c(NC(=O)C2CCCN2S(=O)(=O)c2ccc3c(c2)NC(=O)CO3)c1` (centres undefined) gave an RP-LC retention time of 803 s.
Under `COc1ccc(NC(=O)CSc2nnc3c4cc(-c5ccc(F)cc5)nn4ccn23)c(OC)c1` stands 648 s; under `Cc1ccc(C(C)C)cc1NC(=O)Nc1ccc([N+](=O)[O-])cc1`, 1160 s.
`CCc1noc(NC(C)=O)c1-c1ccc(OC)c(S(=O)(=O)N2CCCCC2)c1` yielded an RP-LC retention time of 758 s.
Under `Cc1cc2nn(CC(=O)Nc3ccc(F)cc3Cl)c(=O)n2c(Nc2ccccc2)n1` stands 1030 s; under `CC1Oc2ccccc2N(Cc2nc(-c3ccc(F)c(Cl)c3)no2)C1=O` (centres undefined), 1190 s.
Under `Cc1noc(C)c1Cc1ccc(C(=O)N2CCc3nn(C)c(=O)n3CC2)o1` stands 633 s.
For `O=C(NCc1noc(Cc2ccccc2)n1)c1ccccc1`, the RP-LC retention time turned out to be 798 s.
Consider `CCCN1C(=O)C(CC(=O)N(C)C)Sc2ncccc21` (centres undefined), for which the RP-LC retention time was 655 s.
Under `c1ccc(Cc2nnc3sc(-c4ccc5ccccc5n4)nn23)cc1` stands 1120 s.
`CCC(=O)Nc1cccn2nc(C3CCC3)nc12` returned an RP-LC retention time of 735 s.
Under `C=CCNc1ncnc2ccc(Br)cc12` stands 671 s; under `O=C(NC1CC1)c1ccc(OCC2CCN(C(=O)c3ccc(F)cc3F)CC2)cc1`, 804 s; under `Cc1ccc(Cn2cc(-c3ccncc3)cc2C(=O)N2CCN(CC(C)C)CC2)cc1`, 582 s.
Then `COc1cc(C(=O)Nc2nc3c(s2)Cc2c(Br)ccc(OC)c2-3)cc(OC)c1OC`, with 1170 s.
Under `Cc1nn(-c2nc3ccccc3[nH]2)c2c1C(=O)CC(c1ccccc1)C2` (centres undefined) stands 990 s.
In turn, `CC1CCCCN1c1ccn2c(=O)n(CC(=O)Nc3cc(F)cc(F)c3)nc2n1` (centres undefined) returned an RP-LC retention time of 810 s.
`CC1=C(C#N)C(C)(C)C(C#N)=C(C)N1`: the RP-LC retention time was found to be 804 s.
`Cc1ccc(NC(=O)C2CCCN(S(=O)(=O)c3c[nH]c(C(=O)N4CCCC4)c3)C2)cc1C` (centres undefined) yielded an RP-LC retention time of 866 s.
As to `Cc1cc(C)n(CCC(=O)NCC2Cn3cccc3C(=O)N2C)n1` (centres undefined), the RP-LC retention time was 593 s.
Under `COc1ccccc1CNS(=O)(=O)c1ccccc1-c1nc(-c2ccc(F)cc2)no1` stands 1210 s.
As for `CCOC(=O)C(=O)Nc1ccc(SCc2nnc(-c3ccccc3)o2)cc1`, the RP-LC retention time was 881 s.
`O=C1CCCN1CCCN1C(=O)[C@H]2CN(Cc3ccc(F)cc3Cl)C[C@H]2C1=O` showed an RP-LC retention time of 658 s.
In turn, `CN(Cc1ccccc1)C(=O)CCSC1CCc2ccccc2NC1=O` (centres undefined) had an RP-LC retention time of 798 s.
Then `CCC(=O)Nc1ccc2c(c1)CN(C(=O)c1c(F)cccc1F)C(C(=O)N1CCCC1)C2` (centres undefined), with 700 s; and `CCCc1noc(-c2cccnc2-n2cnc(C(=O)Nc3cc(C)cc(C)c3)c2)n1`, with 1040 s.
Under `COc1cccc(CCC(=O)Nc2cc(-c3cccnc3)no2)c1` stands 756 s; under `Cc1cc(OCC(=O)Nc2ccnn2Cc2ccco2)cc(C)c1Cl`, 953 s; under `CCC(C(=O)N1CCOc2ccc(C)cc21)n1cnc2nc3c(cc2c1=O)CCCC3` (centres undefined), 950 s.
For `CN1C(=O)c2ccccc2Oc2ccc(C(=O)NCc3ccc4c(c3)OCO4)cc21`, the RP-LC retention time stood at 826 s.
`Cc1ccc(S(=O)(=O)N2CCC(CCC(=O)NCc3ccccc3)CC2)cc1` yielded an RP-LC retention time of 873 s.
`Cc1nn(C(C)C(=O)NCCCN(C)C2CCCCC2)c(=O)c2nn(-c3ccccc3)c(C)c12` (centres undefined) returned an RP-LC retention time of 656 s.
`O=C(NCCN1CCOCC1)c1ccc2ccnc(N3CCN(C(=O)c4ccco4)CC3)c2c1` gave an RP-LC retention time of 567 s.
For the compound `c1ccc(-n2nnnc2-c2cccc3ccccc23)cc1`, the RP-LC retention time was 1010 s.
Under `COc1ccc(-n2nc(C)c3sc(N4CCCC(C(=O)NC5CCCC5)C4)nc32)cc1` (centres undefined) stands 1040 s; under `CN(C)c1cc(N2CCCC(NC(=O)Cc3cccs3)C2)ncn1` (centres undefined), 596 s; under `Cc1ccc2ncn(C3CCN(S(=O)(=O)c4ccc(CC(C)C)cc4)CC3)c(=O)c2c1`, 1150 s.
The compound `CCN1C(=O)CCc2cc(NS(=O)(=O)c3c(C)cccc3Cl)ccc21` showed an RP-LC retention time of 846 s.
Under `CCCc1cc(=O)oc2cc(C)cc(OCC(=O)N[C@H](C(=O)O)C(C)C)c12` stands 806 s; under `CC(C)C(=O)NCCc1csc(C2CCCN(C(=O)C3CCC3)C2)n1` (centres undefined), 711 s; under `Cc1ccc(F)cc1NS(=O)(=O)c1cc2n(c1)CCN(CC(C)C)C2=O`, 840 s.
`CCn1c(C(=O)NCCc2ccccc2)cc2sc(Cl)cc21` came in with an RP-LC retention time of 1160 s.
Under `C=C1C(=O)C2=CC1CCC(=O)C1(C)CCC(OC(C)=O)C(C)(C)C1CC2O` (centres undefined) stands 718 s.
Then `O=C(c1c(F)cccc1F)N1CCN(S(=O)(=O)c2cc3c4c(c2)CCC(=O)N4CCC3)CC1`, with 799 s; and `C=CCn1c(C(=O)NCCc2c[nH]c3ccccc23)cc2cc(S(=O)(=O)N(C)C)ccc21`, with 981 s.
Consider `COc1ccccc1CNC(=O)C1CCN(S(=O)(=O)c2ccc3c(c2)CCCC(=O)N3)CC1`, for which the RP-LC retention time came to 816 s.
Then `CCCn1cc(CCNS(=O)(=O)CC)c2cccnc21`, with 661 s.
Under `O=C(NCc1ccc(F)cc1)C1CCc2nc(N3CCCCC3)ncc2C1` (centres undefined) stands 678 s; under `Cc1cc2oc(C(=O)NCC(c3cccs3)N(C)C)cc(=O)c2cc1Cl` (centres undefined), 652 s.
Then `O=C(CSc1ccc(NC(=O)c2cccs2)nn1)Nc1nc2ccccc2s1`, with 840 s; and `Cc1oc(-c2ccc(NC(=O)CC3CCCC3)cc2)nc1Cn1cccn1`, with 896 s.
`O=C(Cc1ccc(F)cc1)NC1CCN(c2nnc3ccccn23)CC1`: the RP-LC retention time came to 629 s.
Turning to `Cc1cc(-c2nnc(-c3ccc(F)cc3)o2)c(C)n1CC(=O)Nc1ccc2c(c1)OCCO2`, the RP-LC retention time amounted to 916 s.
The compound `O=C(COc1ccccc1)NCCS(=O)(=O)N1CCN(c2cccc(Cl)c2)CC1` gave an RP-LC retention time of 926 s.
Under `Cc1cc(C)c2c(n1)SCCN2C(=O)CCC(=O)NCc1ccccc1C` stands 700 s.
Under `CC(NC(=O)c1ccccc1)c1nc(-c2ccc3oc(-c4ccccc4)nc3c2)no1` (centres undefined) stands 1090 s; under `COc1ccc(NC(=O)C(C)C2CCN(C(=O)Nc3ccc(C)cc3)CC2)c(OC)c1` (centres undefined), 848 s.
Then `CCc1nc(-c2ccc3c(c2)CCN3C(=O)Cc2ccc(OC)cc2)no1`, with 1040 s.
`CCOC(=O)c1ccc(NC(=O)N2CCCC2c2c(C)noc2C)cc1` (centres undefined) yielded an RP-LC retention time of 801 s.
Then `Cc1noc(-c2ccc(OC3CN(C(=O)NC4CCCC4)C3)cc2)n1`, with 801 s; and `Cc1ccc2c(c1)N(CCCC(=O)Nc1ccc(C)c(C)c1)C(=O)CO2`, with 922 s.
Under `Cc1noc(C)c1CC(=O)N1CCCCCCNC(=O)[C@@H]2CCCC[C@@H]21` stands 739 s; under `Cc1ccccc1NC(=O)c1sc(-c2cn(C)c3ncccc23)nc1C`, 890 s.
As for `Cc1cccc(-c2nc(Cn3nnc(-c4nc(-c5ccncc5)no4)c3C)c(C)o2)c1`, the RP-LC retention time worked out at 1070 s.
The compound `COCCNC(=O)C(=O)Nc1ccc(Br)cc1F` returned an RP-LC retention time of 839 s.
Under `COCCCNC(=O)C1c2ccccc2C(=O)N1CCc1ccc(C)cc1` (centres undefined) stands 787 s.
In turn, `CCCN(CCC)S(=O)(=O)c1ccc(C(=O)Nc2nc3c(s2)CCc2ccccc2-3)cc1` yielded an RP-LC retention time of 1310 s.
Then `COc1ccc(NC(=O)C(C)C2CCN(C(=O)Nc3ccccc3)CC2)c(OC)c1` (centres undefined), with 810 s; and `Cc1cc(C)cc(NC(=O)c2cn(-c3cc(N4CCCC4)ncn3)cn2)c1`, with 972 s.
In turn, `O=C([C@@H]1C[C@H](F)CN1S(=O)(=O)Cc1ccccc1)N1CCOCC1` came in with an RP-LC retention time of 692 s.
Under `COC(=O)CN1C(=O)C2CCCN2C(=O)c2ccccc21` (centres undefined) stands 634 s; under `CC(C)Oc1ccc(CNC(=O)c2nnc(-c3ccc(S(=O)(=O)N4CCOCC4)cc3)o2)cc1`, 915 s.
Then `Cc1cc2nn(CC(=O)Nc3ccc(F)c(Cl)c3)c(=O)n2c(Nc2ccccc2)n1`, with 1070 s.
